Entries after “also recorded” stand apart in the source; their conditions may differ.
Tests used:
RGCs [1] = assay: RGC synapse assay: synaptogenic activity (co-localized synaptotagmin/PSD-95 puncta); format: cell-based, rat; details: for number of co-localized synaptic puncta/cell (synapse number): purified TSPs, 8 nM each, vs RGCs alone (Control)
Experimental: (§1) RGCs were purified by sequential immunopanning to greater than 99.5% purity from P5 Sprague-Dawley rats (Simonsen Labs, Gilroy, Calif.), as previously described (Barres et. al. (1988) Neuron 9, 791). Approximately 30,000 RGCs were cultured per well in 24-well plates (Falcon) on glass (Assistant) or Aclar 22C (Allied Signal) coverslips coated with poly-D-lysine (10 μg/ml) followed by laminin (2 μg/ml). RGCs were cultured in 600 μl of serum-free medium, modified from Bottenstein and Sato (1979), containing Neurobasal (Gibco), bovine serum albumin, selenium, putrescine, triiodo-thyronine, transferrin, progesterone, pyruvate (1 mM), glutamine (2 mM), CNTF (10 ng/ml), BDNF (50 ng/ml), insulin (5 μg/ml), and forskolin (10 μM). Recombinant human BDNF and CNTF were generously provided by Regeneron Pharmaceuticals.
(§2) Purified human platelet TSP1 was from either Sigma or Haematologic Technologies with similar results. Recombinant TSP2 was purified from serum-free medium conditioned by baculovirus-infected insect cells expressing mouse TSP2. Since purified TSP1 is readily available, we used this as the source of TSP in our experiments unless otherwise stated TSPs were used at a concentration of 5 μg/ml unless otherwise specified. RCGs were cultured for 4 days to allow robust process outgrowth and then cultured with TSPs for an additional 6 days. All other reagents were obtained from Sigma.
For preparation of ACM, confluent cultures of astrocytes in 10 cm dishes were washed 3× in PBS and fed with 10 mls RGC medium (without CNTF, BDNF or forskolin). ACM was harvested after 4-6 days of conditioning, filtered through a 0.2 μm syringe filter and concentrated 10× through a 5 KD molecular weight cut-off centrifuge concentrator (Millipore), unless otherwise indicated. ACM was used at a final concentration of 5× unless otherwise indicated. […]
For synapse quantification, cultures were fixed for 7 min in 4% paraformaldehyde (PFA), washed 3× in phosphate buffered saline (PBS) and blocked in 100 μL of blocking buffer (50% Antibody Buffer (0.5% bovine serum albumin, 0.5% Triton X-100, 30 mM NaPO4, 750 mM NaCl, 5% normal goat serum, and 0.4% NaN3, pH 7.4), 50% goat serum (NGS), 0.1% Triton-X) for 30 min. […]
(§3) Mounted coverslips were imaged using Nikon Diaphot and Eclipse epifluorescence microscopes (Nikon). Healthy cells that were at least 2 cell diameters from their nearest neighbor were identified and selected at random by eye using DAPI fluorescence. 8-bit digital images of the fluorescence emission at both 594 nm and 488 nm were recorded for each selected cell using a cooled monochrome CCD camera and SPOT image capture software (Diagnostic Instruments, Inc). […]

TSP4 = molecular target: T1, TSP4 (Rattus norvegicus, UniProt P49744); assay: Reversal of established tactile allodynia in L5/6 spinal nerve ligated rats (von Frey PWT); format: in vivo; details: 50 ug/day intrathecal for four days; for reversal of established allodynia in the injury (ipsilateral) side: 5 weeks post injury
T1 construct: elevated TSP4 protein may play a critical role in peripheral nerve injury-induced allodynia at the spinal level; from tissue; host or cells: spinal cord (L5/6) of live male Sprague Dawley rats, intrathecal injection
T1 sequence (P49744 43-980): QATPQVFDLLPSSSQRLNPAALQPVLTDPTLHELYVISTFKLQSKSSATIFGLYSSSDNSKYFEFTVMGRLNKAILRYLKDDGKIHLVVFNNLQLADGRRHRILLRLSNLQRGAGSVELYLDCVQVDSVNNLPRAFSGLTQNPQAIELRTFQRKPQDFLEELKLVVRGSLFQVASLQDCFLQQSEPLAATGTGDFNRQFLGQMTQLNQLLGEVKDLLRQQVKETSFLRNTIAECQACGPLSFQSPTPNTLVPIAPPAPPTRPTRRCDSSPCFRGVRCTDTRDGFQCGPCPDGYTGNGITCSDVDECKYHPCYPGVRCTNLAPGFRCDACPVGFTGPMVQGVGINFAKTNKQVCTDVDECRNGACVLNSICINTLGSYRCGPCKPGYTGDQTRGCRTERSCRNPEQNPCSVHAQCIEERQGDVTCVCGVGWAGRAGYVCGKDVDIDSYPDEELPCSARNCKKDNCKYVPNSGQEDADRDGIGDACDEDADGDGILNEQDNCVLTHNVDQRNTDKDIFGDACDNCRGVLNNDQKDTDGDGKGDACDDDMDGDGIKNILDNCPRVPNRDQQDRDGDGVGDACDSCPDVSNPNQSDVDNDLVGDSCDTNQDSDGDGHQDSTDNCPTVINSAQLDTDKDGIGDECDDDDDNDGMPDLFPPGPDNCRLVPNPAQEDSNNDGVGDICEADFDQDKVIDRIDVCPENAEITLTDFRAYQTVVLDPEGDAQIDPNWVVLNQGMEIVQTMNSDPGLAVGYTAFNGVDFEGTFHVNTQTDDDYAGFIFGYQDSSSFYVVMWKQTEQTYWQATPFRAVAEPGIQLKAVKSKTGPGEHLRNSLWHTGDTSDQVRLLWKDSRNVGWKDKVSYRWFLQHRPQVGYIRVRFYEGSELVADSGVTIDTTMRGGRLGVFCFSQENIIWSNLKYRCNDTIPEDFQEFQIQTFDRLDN
Experimental: To determine if TSP4 plays a role in mediating neuropathic pain processing at the spinal cord level, the effect of intrathecal TSP4 antisera in reversing established allodynia in spinal nerve ligated rats was examined. Intrathecal bolus injection of active TSP4 antibody (chicken polyclonal, from Dr. Frank Zaucke at University of Cologne, Cologne, Germany) was administered into left L5/6 spinal nerve ligated rats 2-weeks post injury, when the injured rats had fully developed allodynia. […] Neither the antisense nor mismatch oligodeoxynucleotides altered the behavioral thresholds at the non-injury side. […] Male Harlan Sprague Dawley rats (100-150 g, Harlan Industries Indianapolis, Ind.) were housed in separate cages, exposed to a 12/12 h day/night cycle and allowed free access to food and water. Peripheral nerve injury was induced in isoflurane-anesthetized animals with tight ligation of the left L5/6 spinal nerves between DRG and the beginning of the spinal nerve (Kim and Chung, Pain 50 50:355-363, 1992). To access tactile allodynia, paw withdrawal threshold (PWT) was determined using the up-down method of Dixon (Dixon, Ann. Rev. Pharma. & Toxico. 20:441-462, 1980) with von Frey filaments (Stoelting, Wood Dale, Ill., USA) as described previously (Chaplan et al., J. Neuros. Methods 53:55-63, 1994). Briefly, animals were allowed to acclimate for 30 min in a clear plastic cubicle with a wire-mesh base. A 2 g calibrated filament was first applied to the left hindpaw plantar surface with a pressure causing the filament to bend. If no paw lifting was detected after 5 s the next filament with increasing weight was used. If a paw lifting was observed, the next weaker filament was used. […] Neurosci. 21:1868-75, 2001). […] Rn014934317, Applied Biosystems), and is specific to the TSP 4 mRNA. Mismatch oligodeoxynucleotides, which contain the same number of nucleotides but in a random order (not complementary to any particular region of TSP4 mRNA), were used as controls. […] Genbank accession #: X89963) Oligodeoxynucleotides: These antisense and mismatch sequences were not complementary to any sequences of other rat genes as indicated by BLAST search results in rat genome database. It had been shown that oligodeoxynucleotides with phosphorothioate modification have increased potential for crossing lipid bilayers, and reduce nuclease cleavage (Crooke, et al., Ann. Rev. Pharmacology. & Toxicology, 1996).

naive rats = assay: TSP4-induced behavioral hypersensitivity in naive rats (paw withdrawal threshold, von Frey); format: in vivo, rat
RGCs [2] = assay: Inhibition of TSP-, astrocyte/ACM- or Hevin-induced synapse formation in RGC cultures; format: cell-based, rat
Experimental: as §1, §2
For preparation of ACM, confluent cultures of astrocytes in 10 cm dishes were washed 3× in PBS and fed with 10 mls RGC medium (without CNTF, BDNF or forskolin). ACM was harvested after 4-6 days of conditioning, filtered through a 0.2 μm syringe filter and concentrated 10× through a 5 KD molecular weight cut-off centrifuge concentrator (Millipore), unless otherwise indicated. ACM was used at a final concentration of 5× unless otherwise indicated. RCGs were cultured for 4 days to allow robust process outgrowth and then cultured with ACM or an astrocyte-feeding layer for an additional 6 days.
For synapse quantification, cultures were fixed for 7 min in 4% paraformaldehyde (PFA), washed 3× in phosphate buffered saline (PBS) and blocked in 100 μL of blocking buffer (50% Antibody Buffer (0.5% bovine serum albumin, 0.5% Triton X-100, 30 mM NaPO4, 750 mM NaCl, 5% normal goat serum, and 0.4% NaN3, pH 7.4), 50% goat serum (NGS), 0.1% Triton-X) for 30 min. After blocking, cover slips were washed 3× in PBS and 100 μL of primary antibody solution was added to each cover slip, consisting of rabbit anti-synaptotagmin (cytosolic domain, Synaptic Systems) and mouse anti-PSD-95 (6G6-1C9 clone, Affinity Bio Reagents) diluted 1:500 in antibody buffer. Coverslips were incubated overnight at 4° C., washed 3× in PBS, and incubated with 100 μL of secondary antibody solution containing Alexa-594 conjugated goat anti-rabbit and Alexa-488 conjugated goat anti-mouse (Molecular Probes) diluted 1:1000 in antibody buffer. Following incubation for 2 h at room temperature, coverslips were washed five times in PBS and mounted in Vectashield mounting medium with DAPI (Vector Laboratories Inc) on glass slides (VWR Scientific). For presynaptic activity assay, rabbit synaptotagmin antiserum was generated by immunization with a peptide corresponding to the N-terminal luminal portion of synaptotagmin. This serum was added at 1:500 to live cultures and incubated for 6 hours. Cells were then washed 3× in DPSB, fixed and stained as above, except for the omission of synaptotagmin antibody from the primary antibody solution.
as §3

**Q.** How did the “number of co-localized synaptic puncta/cell (synapse number)” value (RGCs [1]) turn out when “TSP1: purified human platelet TSP1, trimeric thrombospondin” was run?
**A.** significantly increased the number of co-localized synaptic puncta/cell; also recorded: increased the number of synapses formed by RGCs significantly

**Q.** With “TSP3: mouse TSP3 overexpressed in Cos7 cells; conditioned media used as source” as the molecule, how does the “number of co-localized synaptic puncta/cell” value (RGCs [1]; culture supernatant of Cos7 cells overexpressing TSP3, vs supernatant of empty-vector Cos7 cells) read?
**A.** significantly increased the number of co-localized synaptic puncta/cell; also recorded: increased the number of synaptic puncta to the same extent as astrocytes

**Q.** Which “reversal of established allodynia in the injury (ipsilateral) side” value (shortened to “reversal of established allodynia”) (TSP4) does the source give for “5′ GGCGTAATCATGGTCATACG 3′ (DNA, backbone and methylation of C not given here; further chemistry not fully specified) [Antisense #1]” here?
**A.** had some effects in allodynia reversal

**Q.** How did the “number of co-localized synaptic puncta/cell (synapse number)” value (RGCs [1]) turn out when “TSP4: recombinant purified pentameric thrombospondin 4” was run?
**A.** significantly increased the number of co-localized synaptic puncta/cell; also recorded: increased synaptic puncta numbers to the same extent as either astrocytes or TSP1

**Q.** And the “duration of behavioral hypersensitivity” value (naive rats; intrathecal bolus)?
**A.** over a week

**Q.** And the “reversal time post the peak effect time” value (naive rats; intrathecal bolus)?
**A.** about five days

**Q.** What about the “time of peak effect post injection” value (naive rats; intrathecal bolus) of the same molecule?
**A.** 2 to 4 days

**Q.** And the “hindpaw withdrawal thresholds to von Frey filament stimulation” value (naive rats; intrathecal bolus injection of active protein into L5/6 spinal cord segments)?
**A.** caused a gradual reduction in their hindpaw withdrawal thresholds; also recorded: induced behavioral hypersensitivity in a dose-dependent and reversible manner

**Q.** With `NCCCC(=O)O` [GABA, γ-aminobutyric acid] as the molecule, how does the “effect on SD2/TSP-induced synapse formation” value (RGCs [2]; 1 mM (high concentrations)) read?
**A.** blocked TSP induced synapse formation; also recorded: inhibitory

**Q.** And the “effect on synapse numbers induced by SD2” value (RGCs [2]; 10 and 100 μM)?
**A.** did not decrease the synapse numbers

**Q.** Which “duration of antisense effects after the last injection” value (TSP4) does the source give for “5′ CCATCATTGTTGCTATCTTCC 3′ (DNA, backbone and methylation of C not given here; further chemistry not fully specified) [Antisense #2]” here?
**A.** 3 days

**Q.** And the “onset time of antisense effects” value (TSP4)?
**A.** 3 days

**Q.** What about the “time of peak antisense effect” value (TSP4) of the same molecule?
**A.** one day after the 4-day treatment

**Q.** What about the “reversal of established allodynia” value (TSP4) of the same molecule?
**A.** caused a complete reversal of established allodynia

**Q.** What about the “reversal of established allodynia” value (TSP4; listed as TSP4 antisense oligonucleotide #2) of the same molecule?
**A.** caused a complete reversal of established allodynia in the injury side

B1: Hevin: another astrocyte secreted synaptogenic protein (protein, UniProt Q14515 17-664, looked up)
SPARC-like protein 1: IPTNARLLSDHSKPTAETVAPDNTAIPSLRAEAEENEKETAVSTEDDSHHKAEKSSVLKSKEESHEQSAEQGKSSSQELGLKDQEDSDGHLSVNLEYAPTEGTLDIKEDMSEPQEKKLSENTDFLAPGVSSFTDSNQQESITKREENQEQPRNYSHHQLNRSSKHSQGLRDQGNQEQDPNISNGEEEEEKEPGEVGTHNDNQERKTELPREHANSKQEEDNTQSDDILEESDQPTQVSKMQEDEFDQGNQEQEDNSNAEMEEENASNVNKHIQETEWQSQEGKTGLEAISNHKETEEKTVSEALLMEPTDDGNTTPRNHGVDDDGDDDGDDGGTDGPRHSASDDYFIPSQAFLEAERAQSIAYHLKIEEQREKVHENENIGTTEPGEHQEAKKAENSSNEEETSSEGNMRVHAVDSCMSFQCKRGHICKADQQGKPHCVCQDPVTCPPTKPLDQVCGTDNQTYASSCHLFATKCRLEGTKKGHQLQLDYFGACKSIPTCTDFEVIQFPLRMRDWLKNILMQLYEANSEHAGYLNEKQRNKVKKIYLDEKRLLAGDHPIDLLLRDFKKNYHMYVYPVHWQFSELDQHPMDRVLTHSELAPLRASLVPMEHCITRFFEECDPNKDKHITLKEWGHCFGIKEEDIDENLLF
**Q.** How did the “number of synapses formed” value (RGCs [1]; 3 DIV RGCs treated 9 days, TSP2 EGF-like domains 20 nM, Hevin 30 nM, vs RGCs alone) turn out when B1 was run?
**A.** increased the number of synapses formed significantly

From US8491897B2, “Treatment of neuropathic pain using anti-thrombospondin antibodies” (The Board of Trustees of the Leland Stanford Junior …, priority 2007, dated 2013)
